These results are taken from patent US8664162B2, “Method for application of pesticides and plant growth regulators and nutrients to plants” (ArborSystems, priority 2009, dated 2014).

Data set [1] in a line: in vivo. Particulars: phylodendrons. On the procedure: (§1) Leaves obtained from the treated and untreated trees 100 days after treatment were analyzed for imidacloprid by enzyme-linked immunosorbent assay (ELISA). Briefly, leaves were dried completely and leaf blade material was separated from stems and petioles. The leaf blade material was ground to a fine powder, and about 5 grams of the material placed in a vial. A measured amount of methanol was added so that the leaf material was covered and 1 to 2 ml of methanol was beyond the leaf material, for a total of 10 to 20 ml of methanol. The vials were mixed well at least twice a day for at least 48 hours. After at least 48 hours, 10 microliters of the liquid was transferred to a smaller vial, and 1.5 ml distilled water added, and the vials were mixed well. ELISA was performed using the Envirologix™ QuantiPlate Kit for Imidacloprid (EP 006).
Five ml of a formulation of 5% imidacloprid and 95% THFA was applied to the soil of each of two 4-inch diameter pots of phylodendrons. An equal number of control plants received no insecticide treatment. All of the plants were watered and kept in the same area. On the tenth day after treatment, leaves from treated and control plants were collected and tested for imidacloprid by ELISA as described in Example 1.

Data set [2] in a line: in vivo. Particulars: aspen tree. On the procedure: The tree had not previously been treated with any pesticide. About 4 to 5 ml of a formulation containing 5% imidacloprid and 95% tetrahydrofurfuryl alcohol (THFA) was poured onto the soil around the base and then watered in.
as §1

As for `O=[N+]([O-])NC1=NCCN1Cc1ccc(Cl)nc1` [imidacloprid], in data set [1], the “Time for absorption by the roots and translocation to the leaves” value was not above 10 days; the concentration at 10 days is 72000 ng/g. In data set [2], the concentration at 100 days is 17000 ng/g.
